Reference: patent US7074789B2, “Kinase inhibitors” (Amgen Inc., priority 1999, dated 2006)
Several values for one entry are separate records, joined by “and”; a condition that tells them apart may be missing. Equal values may be shown once.

Assays:
Assay type in all cases: biochemical
[1] = target: T1, Kdr (Homo sapiens, UniProt P35968); assay: Kinase inhibition assay (33P transfer), Kdr; conditions: for IC50: read-out: KDR-1
T1 construct: Kinases are expressed as either kinase domains or full length constructs; made in house
Summary of the method: (§1)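 Enzyme activity is taken as the amount of 33PO4 moved from ATP onto poly(Glu, Tyr) 4:1 or poly(Arg, Ser) 3:1 fixed to the plate surface. Unbound label is removed with 0.5% phosphoric acid before scintillation counting.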

[2] = target: T2, EGFR (Homo sapiens, UniProt P00533); assay: Kinase inhibition assay (33P transfer), EGFR; conditions: Table 2, kinase inhibition class; for IC50: read-out: EGFR-1
T2 construct: Kinases are expressed as either kinase domains or full length constructs; made in house
Summary of the method: (§2)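 Radiometric format: recombinant tagged kinase (catalytic domain or whole protein, sometimes combined with regulatory polypeptides) phosphorylates immobilised poly(Glu,Tyr) 4:1 or poly(Arg,Ser) 3:1 using [33P]ATP. Wells are washed in 0.5% phosphoric acid, then counted. IC50 is taken where substrate labelling falls by half.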

[3] = target: T3, Itk (Homo sapiens, UniProt Q08881); assay: Kinase inhibition assay (33P transfer), Itk; conditions: for IC50: read-out: Itk-1
T3 construct: Kinases are expressed as either kinase domains or full length constructs; made in house
T3 sequence (Q08881 1-620): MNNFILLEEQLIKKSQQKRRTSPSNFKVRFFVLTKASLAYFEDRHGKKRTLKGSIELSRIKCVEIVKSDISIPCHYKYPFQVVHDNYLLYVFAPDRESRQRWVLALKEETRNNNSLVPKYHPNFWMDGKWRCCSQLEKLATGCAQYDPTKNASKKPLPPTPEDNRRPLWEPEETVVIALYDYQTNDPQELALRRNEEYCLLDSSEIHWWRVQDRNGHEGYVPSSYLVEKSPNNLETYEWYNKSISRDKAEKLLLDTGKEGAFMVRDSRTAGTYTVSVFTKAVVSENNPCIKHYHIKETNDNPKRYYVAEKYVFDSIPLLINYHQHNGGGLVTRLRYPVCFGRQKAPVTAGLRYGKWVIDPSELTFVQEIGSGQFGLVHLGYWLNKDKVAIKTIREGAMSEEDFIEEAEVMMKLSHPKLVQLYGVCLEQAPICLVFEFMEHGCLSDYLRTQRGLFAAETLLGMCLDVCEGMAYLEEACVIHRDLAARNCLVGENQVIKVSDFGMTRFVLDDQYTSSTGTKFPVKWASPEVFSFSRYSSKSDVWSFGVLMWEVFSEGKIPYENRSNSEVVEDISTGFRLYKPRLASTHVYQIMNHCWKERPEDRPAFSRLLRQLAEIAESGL
Summary of the method: as §2

[4] = target: T4, c-Met (Homo sapiens, UniProt P08581); assay: Kinase inhibition assay (33P transfer), c-Met; conditions: Table 2, kinase inhibition class; for IC50: read-out: Met-1
T4 construct: Kinases are expressed as either kinase domains or full length constructs; made in house
Summary of the method: as §2

[5] = target: T5, Lck (Homo sapiens, UniProt P06239); assay: Kinase inhibition assay (33P transfer), Lck; conditions: for IC50: read-out: Lck-1
T5 construct: Kinases are expressed as either kinase domains or full length constructs; made in house
Summary of the method: as §1

[6] = target: T6, AKT (Homo sapiens, UniProt Q9Y243); assay: Kinase inhibition assay (33P transfer), AKT; conditions: Table 2, kinase inhibition class; for IC50: read-out: AKT3-1
T6 construct: Kinases are expressed as either kinase domains or full length constructs; made in house
Summary of the method: as §1

[7] = target: T7, IGFR-1 (Homo sapiens, UniProt P08069); assay: Kinase inhibition assay, IGFR-1 (Table 2); conditions: Table 2, kinase inhibition class
T7 construct: Kinases are expressed as either kinase domains or full length constructs; made in house

[8] = target: T8, ErbB2 (Homo sapiens, UniProt P04626); assay: Kinase inhibition assay (33P transfer), ErbB2; conditions: for IC50: read-out: ErbB2-2
T8 construct: Kinases are expressed as either kinase domains or full length constructs; made in house
Summary of the method: as §2

[9] = target: T9, Zap-70 (Homo sapiens, UniProt P43403); assay: Kinase inhibition assay (33P transfer), Zap-70; conditions: for IC50: read-out: Zap-1
T9 construct: Kinases are expressed as either kinase domains or full length constructs; made in house
T9 sequence (P43403 1-619): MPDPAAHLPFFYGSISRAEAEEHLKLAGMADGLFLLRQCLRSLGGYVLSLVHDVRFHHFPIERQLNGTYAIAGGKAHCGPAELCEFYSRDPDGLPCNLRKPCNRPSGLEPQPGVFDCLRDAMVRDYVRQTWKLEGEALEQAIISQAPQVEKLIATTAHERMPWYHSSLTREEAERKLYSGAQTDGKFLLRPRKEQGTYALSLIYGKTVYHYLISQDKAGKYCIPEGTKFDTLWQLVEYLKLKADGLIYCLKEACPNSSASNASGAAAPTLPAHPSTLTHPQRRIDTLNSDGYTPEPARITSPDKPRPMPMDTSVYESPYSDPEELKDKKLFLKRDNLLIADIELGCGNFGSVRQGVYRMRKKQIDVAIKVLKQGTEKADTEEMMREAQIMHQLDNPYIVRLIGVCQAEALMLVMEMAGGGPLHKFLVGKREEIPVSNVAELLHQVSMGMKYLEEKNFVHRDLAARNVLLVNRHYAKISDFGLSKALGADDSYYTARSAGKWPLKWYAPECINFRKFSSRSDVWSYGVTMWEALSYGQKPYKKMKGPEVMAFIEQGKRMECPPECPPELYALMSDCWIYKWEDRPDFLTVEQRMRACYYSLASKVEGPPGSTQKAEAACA
Summary of the method: as §1

[10] = target: T10, PDGFRB (Homo sapiens, UniProt P09619); assay: Kinase inhibition assay (33P transfer), PDGFRB; conditions: for IC50: read-out: PDGFRB-1
T10 construct: Kinases are expressed as either kinase domains or full length constructs; made in house

T7 sequence (P08069 31-1367): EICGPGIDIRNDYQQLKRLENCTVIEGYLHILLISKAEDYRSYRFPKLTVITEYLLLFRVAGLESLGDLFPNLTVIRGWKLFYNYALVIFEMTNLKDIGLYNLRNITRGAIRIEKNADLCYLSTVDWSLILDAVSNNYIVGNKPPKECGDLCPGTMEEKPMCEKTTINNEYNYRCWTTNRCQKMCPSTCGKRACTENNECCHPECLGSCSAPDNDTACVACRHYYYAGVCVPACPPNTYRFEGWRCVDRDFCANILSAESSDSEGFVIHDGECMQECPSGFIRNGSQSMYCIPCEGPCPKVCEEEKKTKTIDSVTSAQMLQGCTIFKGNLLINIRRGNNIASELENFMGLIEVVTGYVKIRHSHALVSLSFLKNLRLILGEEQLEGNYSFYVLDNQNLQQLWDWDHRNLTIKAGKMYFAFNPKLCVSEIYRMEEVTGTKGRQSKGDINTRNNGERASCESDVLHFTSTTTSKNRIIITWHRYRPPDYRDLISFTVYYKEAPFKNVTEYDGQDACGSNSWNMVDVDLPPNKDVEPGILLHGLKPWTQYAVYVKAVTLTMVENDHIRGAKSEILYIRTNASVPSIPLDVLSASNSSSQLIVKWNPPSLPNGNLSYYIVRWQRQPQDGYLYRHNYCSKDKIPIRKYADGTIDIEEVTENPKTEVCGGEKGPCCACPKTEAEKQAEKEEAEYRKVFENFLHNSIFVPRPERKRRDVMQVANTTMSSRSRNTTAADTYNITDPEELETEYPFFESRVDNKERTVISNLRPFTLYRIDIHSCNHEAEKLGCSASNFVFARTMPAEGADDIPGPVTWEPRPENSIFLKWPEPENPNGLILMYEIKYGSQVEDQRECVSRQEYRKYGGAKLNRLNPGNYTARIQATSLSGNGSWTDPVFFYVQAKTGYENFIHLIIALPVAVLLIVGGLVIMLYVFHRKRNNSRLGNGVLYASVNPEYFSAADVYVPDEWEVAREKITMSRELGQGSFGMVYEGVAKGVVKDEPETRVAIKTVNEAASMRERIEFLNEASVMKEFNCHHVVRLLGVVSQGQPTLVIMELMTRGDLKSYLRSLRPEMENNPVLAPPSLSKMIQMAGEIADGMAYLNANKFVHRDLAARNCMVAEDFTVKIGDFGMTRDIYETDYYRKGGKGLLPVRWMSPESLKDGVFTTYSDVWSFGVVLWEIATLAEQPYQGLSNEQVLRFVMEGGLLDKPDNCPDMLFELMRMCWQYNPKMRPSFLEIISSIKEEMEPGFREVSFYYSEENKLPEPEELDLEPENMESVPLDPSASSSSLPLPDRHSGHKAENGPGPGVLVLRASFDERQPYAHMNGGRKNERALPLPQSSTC
T5 sequence (P06239 whole entry, species assumed, the tested form may be a part): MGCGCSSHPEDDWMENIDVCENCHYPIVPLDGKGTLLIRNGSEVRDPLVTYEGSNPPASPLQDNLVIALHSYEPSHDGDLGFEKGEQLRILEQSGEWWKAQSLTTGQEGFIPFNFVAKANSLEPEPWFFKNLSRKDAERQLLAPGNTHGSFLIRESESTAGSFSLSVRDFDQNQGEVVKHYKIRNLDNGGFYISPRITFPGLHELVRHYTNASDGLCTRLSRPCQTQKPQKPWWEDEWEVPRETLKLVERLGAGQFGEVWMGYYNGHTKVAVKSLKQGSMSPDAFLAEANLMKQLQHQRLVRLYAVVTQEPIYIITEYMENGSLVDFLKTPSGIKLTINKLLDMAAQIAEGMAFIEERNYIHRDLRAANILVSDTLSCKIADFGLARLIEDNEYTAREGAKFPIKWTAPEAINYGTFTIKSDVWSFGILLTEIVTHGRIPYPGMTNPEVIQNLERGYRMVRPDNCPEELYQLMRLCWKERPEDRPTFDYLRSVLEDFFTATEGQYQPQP
T2 sequence (P00533 25-1210, species assumed): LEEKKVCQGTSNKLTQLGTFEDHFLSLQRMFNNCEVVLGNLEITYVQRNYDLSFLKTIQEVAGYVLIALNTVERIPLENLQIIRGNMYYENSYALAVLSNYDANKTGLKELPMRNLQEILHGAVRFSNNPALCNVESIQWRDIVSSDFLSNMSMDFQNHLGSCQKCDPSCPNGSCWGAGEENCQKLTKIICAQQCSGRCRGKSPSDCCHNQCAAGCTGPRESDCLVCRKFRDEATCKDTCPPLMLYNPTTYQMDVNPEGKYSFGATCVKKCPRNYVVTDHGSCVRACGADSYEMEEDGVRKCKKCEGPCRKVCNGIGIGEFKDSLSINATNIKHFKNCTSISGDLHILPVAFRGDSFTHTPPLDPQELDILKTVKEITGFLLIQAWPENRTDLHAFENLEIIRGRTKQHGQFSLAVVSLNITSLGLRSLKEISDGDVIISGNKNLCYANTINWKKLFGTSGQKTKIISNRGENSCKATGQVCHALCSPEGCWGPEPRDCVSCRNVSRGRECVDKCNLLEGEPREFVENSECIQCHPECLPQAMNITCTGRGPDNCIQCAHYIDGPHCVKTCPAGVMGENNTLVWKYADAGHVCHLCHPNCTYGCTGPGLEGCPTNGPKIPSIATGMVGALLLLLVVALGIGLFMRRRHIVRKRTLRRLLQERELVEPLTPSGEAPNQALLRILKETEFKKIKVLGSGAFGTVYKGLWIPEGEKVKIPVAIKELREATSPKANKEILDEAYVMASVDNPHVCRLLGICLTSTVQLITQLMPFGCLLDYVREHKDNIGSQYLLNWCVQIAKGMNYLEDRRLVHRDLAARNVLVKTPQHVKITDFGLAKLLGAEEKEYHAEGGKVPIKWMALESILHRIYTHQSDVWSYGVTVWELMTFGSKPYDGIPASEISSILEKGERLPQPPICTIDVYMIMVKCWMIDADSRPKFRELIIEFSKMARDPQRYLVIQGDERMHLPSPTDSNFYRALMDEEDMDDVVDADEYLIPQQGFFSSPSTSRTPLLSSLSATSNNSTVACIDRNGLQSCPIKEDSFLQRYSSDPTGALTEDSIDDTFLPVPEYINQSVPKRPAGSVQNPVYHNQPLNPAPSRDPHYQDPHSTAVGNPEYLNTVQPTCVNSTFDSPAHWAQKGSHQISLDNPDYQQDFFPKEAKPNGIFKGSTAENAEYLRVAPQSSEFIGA
T6 sequence (Q9Y243 whole entry, the tested form may be a part): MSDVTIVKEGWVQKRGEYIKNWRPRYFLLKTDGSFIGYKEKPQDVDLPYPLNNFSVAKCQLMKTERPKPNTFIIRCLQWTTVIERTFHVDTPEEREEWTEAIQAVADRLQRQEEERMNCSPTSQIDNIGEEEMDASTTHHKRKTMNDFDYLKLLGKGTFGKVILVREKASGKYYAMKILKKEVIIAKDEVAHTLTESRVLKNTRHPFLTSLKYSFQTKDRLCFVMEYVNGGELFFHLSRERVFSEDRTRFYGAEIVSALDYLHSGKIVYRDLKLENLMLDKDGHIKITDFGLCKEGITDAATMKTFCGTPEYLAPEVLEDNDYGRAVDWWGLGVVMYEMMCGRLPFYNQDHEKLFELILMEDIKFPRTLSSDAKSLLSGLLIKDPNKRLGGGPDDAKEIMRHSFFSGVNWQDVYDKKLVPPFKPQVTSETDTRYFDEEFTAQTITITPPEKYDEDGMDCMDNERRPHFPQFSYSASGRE
T8 sequence (P04626 23-1255, species assumed): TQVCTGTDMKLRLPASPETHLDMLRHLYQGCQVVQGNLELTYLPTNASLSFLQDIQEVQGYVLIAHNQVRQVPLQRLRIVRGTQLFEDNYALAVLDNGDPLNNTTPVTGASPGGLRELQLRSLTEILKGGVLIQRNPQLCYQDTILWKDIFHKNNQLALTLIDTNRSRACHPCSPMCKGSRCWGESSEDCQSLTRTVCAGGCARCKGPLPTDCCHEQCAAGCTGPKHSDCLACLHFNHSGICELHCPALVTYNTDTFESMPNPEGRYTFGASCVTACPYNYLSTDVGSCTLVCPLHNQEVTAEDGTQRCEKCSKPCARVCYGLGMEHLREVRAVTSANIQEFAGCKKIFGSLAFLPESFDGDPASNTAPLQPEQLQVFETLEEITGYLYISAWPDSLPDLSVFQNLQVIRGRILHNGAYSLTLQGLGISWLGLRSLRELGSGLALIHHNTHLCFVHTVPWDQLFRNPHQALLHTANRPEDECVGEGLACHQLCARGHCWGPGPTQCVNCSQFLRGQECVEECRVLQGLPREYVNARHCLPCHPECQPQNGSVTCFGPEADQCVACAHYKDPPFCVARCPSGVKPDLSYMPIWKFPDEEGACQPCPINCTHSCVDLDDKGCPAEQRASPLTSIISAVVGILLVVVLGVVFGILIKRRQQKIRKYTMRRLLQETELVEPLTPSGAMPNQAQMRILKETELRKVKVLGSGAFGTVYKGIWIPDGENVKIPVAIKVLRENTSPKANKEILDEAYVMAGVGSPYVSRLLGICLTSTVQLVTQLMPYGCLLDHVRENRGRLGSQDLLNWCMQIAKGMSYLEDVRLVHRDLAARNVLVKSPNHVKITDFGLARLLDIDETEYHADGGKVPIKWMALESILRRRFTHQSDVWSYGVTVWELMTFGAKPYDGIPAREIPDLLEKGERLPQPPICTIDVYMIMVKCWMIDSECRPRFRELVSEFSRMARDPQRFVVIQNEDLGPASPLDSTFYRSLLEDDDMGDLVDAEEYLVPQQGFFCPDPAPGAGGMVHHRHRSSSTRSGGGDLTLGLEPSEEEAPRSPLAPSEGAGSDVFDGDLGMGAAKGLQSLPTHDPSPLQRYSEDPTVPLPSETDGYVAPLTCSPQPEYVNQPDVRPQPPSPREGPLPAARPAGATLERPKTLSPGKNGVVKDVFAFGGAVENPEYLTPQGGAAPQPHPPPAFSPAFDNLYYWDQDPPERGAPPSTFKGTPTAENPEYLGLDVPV

Row | SMILES | IC50 [1] [µM] | IC50 [2] [µM] | IC50 [3] [µM] | IC50 [4] [µM] | IC50 [5] [µM] | IC50 [6] [µM] | IC50 [7] [µM] | IC50 [8] | IC50 [9] [µM] | IC50 [10] [µM] | KDR-1 [1] | EGFR-1 [2] | Itk-1 [3] | Met-1 [4] | Lck-1 [5] | AKT3-1 [6] | IGFR-1 [7] | ErbB2-2 [8] | Zap-1 [9] | PDGFRB-1 [10]
1 | COc1cc(Nc2ncnc(-n3c(Nc4cccc5cccnc45)nc4ccccc43)n2)cc(OC)c1OC [Compound 588] | 4.61 to 6.72 | > 8.64 | > 8.64 | > 8.64 | > 8.64 | > 8.64 | 6.72 to 8.64 | 0.768 to 4.61 µM | > 8.64 | 0.768 to 4.61 | – | – | – | – | – | – | – | – | – | –
2 | c1ccc(Cn2ncc3cc(Nc4ncnc(NCc5ccco5)n4)ccc32)cc1 [Compound 728] | 1.01 to 6.04 | 1.01 to 6.04 | > 11.3 | 1.01 to 6.04 | > 11.3 | > 11.3 | 1.01 to 6.04 | > 11.3 µM | 1.01 to 6.04 | > 11.3 | – | – | – | – | – | – | – | – | – | –
3 | Fc1ccc(Nc2ncnc(Nc3ccc4[nH]ccc4c3)n2)cc1Cl [Compound 715] | – | – | – | – | – | – | – | – | – | – | B (B>0.4 and <2.4 ug/mL) | A (A<0.4 ug/mL) | D (D>3.5 and <4.5 ug/mL) | C (C>2.4 and <3.5 ug/mL) | E (E>4.5 ug/mL) | D (D>3.5 and <4.5 ug/mL) | B (B>0.4 and <2.4 ug/mL) | B (B>0.4 and <2.4 ug/mL) | C (C>2.4 and <3.5 ug/mL) | B (B>0.4 and <2.4 ug/mL)
4 | Cc1ccc2c(c1)CCCN2c1ncnc(NCCc2c[nH]c3ccccc23)n1 [Compound 768] | 9.1 to 11.7 | > 11.7 | > 11.7 | 6.24 to 9.1 | > 11.7 | > 11.7 | > 11.7 | 9.1 to 11.7 µM | > 11.7 | > 11.7 | – | – | – | – | – | – | – | – | – | –
5 | COc1cc(Nc2ncnc(-c3cccnc3NCc3ccc(F)cc3)n2)cc(OC)c1OCCN1CCOCC1 [Compound 564] | < 0.712 | 4.27 to 6.23 | > 8.01 | > 8.01 | < 0.712 | > 8.01 | > 8.01 | > 8.01 µM | > 8.01 | < 0.712 | – | – | – | – | – | – | – | – | – | –
6 | COc1cc(Nc2ncnc(-c3cccnc3N)n2)cc(OC)c1OC [Compound 1091] | < 1.13 | > 12.7 | 9.88 to 12.7 | 9.88 to 12.7 | 1.13 to 6.77 | 6.77 to 9.88 | > 12.7 | 1.13 to 6.77 µM | > 12.7 | < 1.13 | – | – | – | – | – | – | – | – | – | –
7 | O=C(O)Cc1cccc(Nc2ncnc(-n3c(NCc4ccccc4)nc4ccccc43)n2)c1 [Compound 531] | < 0.886 | < 0.886 | > 9.97 | 7.75 to 9.97 | 0.886 to 5.32 | > 9.97 | > 9.97 | < 0.886 µM | > 9.97 | < 0.886 | – | – | – | – | – | – | – | – | – | –
8 | c1ccc(CCNc2ncnc(Nc3ccc4c(cnn4Cc4ccccc4)c3)n2)cc1 [Compound 734] | 0.949 to 5.69 | > 10.7 | > 10.7 | 8.3 to 10.7 | > 10.7 | > 10.7 | 5.69 to 8.3 | 5.69 to 8.3 µM | 5.69 to 8.3 | > 10.7 | – | – | – | – | – | – | – | – | – | –
9 | C=CCNc1nc2ccccc2n1-c1ncnc(Nc2cc(OC)c(OC)c(OC)c2)n1 [Compound 574] | < 0.923 | > 10.4 | > 10.4 | > 10.4 | < 0.923 | > 10.4 | 0.923 to 5.54 | > 10.4 µM | > 10.4 | < 0.923 | – | – | – | – | – | – | – | – | – | –
10 | COc1cc(Nc2ncnc(-n3c(NCc4ccc(C)cc4C)nc4ccccc43)n2)cc(OC)c1OC [Compound 584] | 0.782 to 4.69 | 4.69 to 6.84 | > 8.8 | 6.84 to 8.8 | 0.782 to 4.69 | > 8.8 | > 8.8 | 4.69 to 6.84 µM and 0.782 to 4.69 µM | > 8.8 | > 8.8 | – | – | – | – | – | – | – | – | – | –
11 | CN(c1cccc(Cl)c1)c1ncnc(Nc2ccc(S(C)(=O)=O)cc2)n1 [Compound 749] | 6.16 to 8.98 | < 1.03 | > 11.5 | 1.03 to 6.16 | 1.03 to 6.16 | > 11.5 | > 11.5 | 1.03 to 6.16 µM | > 11.5 | 1.03 to 6.16 | – | – | – | – | – | – | – | – | – | –
12 | COc1cc(Nc2ncnc(Nc3cccc(CN4CCN(C)CC4)c3)n2)cc(OC)c1OC [Compound 1047] | > 9.67 | > 9.67 | > 9.67 | > 9.67 | > 9.67 | > 9.67 | > 9.67 | > 9.67 µM | > 9.67 | > 9.67 | – | – | – | – | – | – | – | – | – | –
13 | COc1ccc2c(c1)CCCN2c1ncnc(Nc2cc(OC)c(OC)c(OC)c2)n1 [Compound 631] | < 0.945 | 0.945 to 5.67 | > 10.6 | < 0.945 | < 0.945 | > 10.6 | 0.945 to 5.67 | 0.945 to 5.67 µM | > 10.6 | < 0.945 | – | – | – | – | – | – | – | – | – | –
14 | CN(c1cccc(Cl)c1)c1ncnc(N[C@@H]2CCN(Cc3ccccc3)C2)n1 [Compound 755] | > 11.4 | > 11.4 | > 11.4 | > 11.4 | > 11.4 | > 11.4 | > 11.4 | > 11.4 µM | > 11.4 | > 11.4 | – | – | – | – | – | – | – | – | – | –
